Read-outs that look alike come from different tables or passages of the source.
Columns and labels:
[1] = tested on: HCV replicon in Huh7 cells; test: HCV replicon cell-based assay; parameters: species or system HCV strain 1B; settings: Hepatitis C virus, Huh-7, HCV replicon, Huh7 cells
[2] = molecular target: T1, human leukocyte elastase (HLE) (Homo sapiens, UniProt P08246); test: Specificity assay, HLE; type: biochemical; settings: 2 hr pre-incubation
T1 construct: purchased Sigma
T1 sequence (P08246 30-267): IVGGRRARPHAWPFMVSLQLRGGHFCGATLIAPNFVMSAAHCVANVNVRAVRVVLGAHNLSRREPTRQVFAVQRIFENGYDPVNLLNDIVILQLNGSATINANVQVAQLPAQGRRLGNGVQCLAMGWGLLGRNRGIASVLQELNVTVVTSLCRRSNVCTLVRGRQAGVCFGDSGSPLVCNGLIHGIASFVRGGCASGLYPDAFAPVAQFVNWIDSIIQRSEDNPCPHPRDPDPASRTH
Experimental: (§1) The specificities of compounds of the present invention were determined against a variety of serine proteases: human leukocyte elastase (HLE), porcine pancreatic elastase (PPE) and human pancreatic chymotrypsin and one cysteine protease: human liver cathepsin B. In all cases a 96-well plate format protocol using colorimetric p -nitroaniline (pNA) substrate specific for each enzyme was used as described previously (Patent WO 00/09543) with some modifications to the serine protease assays. All enzymes were purchased from Sigma while the substrates were from Bachem.
(§2) Each assay included a 2 hr enzyme-inhibitor pre-incubation at RT followed by addition of substrate and hydrolysis to ˜30% conversion as measured on a Spectramax Pro microplate reader. Compound concentrations varied from 100 to 0.4 μM depending on their potency. […]
(§3) The percentage of inhibition was calculated using the formula: [1−((UVinh−UVblank)/(UVctl−UVblank))]×100 […]

[3] = molecular target: T2, human pancreatic chymotrypsin (Homo sapiens, UniProt P17538); test: Specificity assay, chymotrypsin; type: biochemical; settings: 2 hr pre-incubation
T2 construct: purchased Sigma
T2 sequence (P17538 19-263): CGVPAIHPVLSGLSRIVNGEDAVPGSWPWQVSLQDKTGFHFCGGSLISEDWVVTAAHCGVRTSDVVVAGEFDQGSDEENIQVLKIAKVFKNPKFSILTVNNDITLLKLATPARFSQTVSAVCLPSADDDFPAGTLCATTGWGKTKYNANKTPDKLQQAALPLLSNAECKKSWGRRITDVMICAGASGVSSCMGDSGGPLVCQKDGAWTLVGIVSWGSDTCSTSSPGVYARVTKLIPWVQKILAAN
Experimental: as §1, §2, §3

`C=C[C@@H]1C[C@]1(NC(=O)[C@@H]1C[C@@H](Oc2nc(C3CC3)cc3ccccc23)CN1C(=O)[C@@H](NC(=O)OC(C)(C)C)C(C)(C)C)C(=O)NS(=O)(=O)C1CC1` [Compound 34] was tested, and the EC50 ([1]; read-out: EC50 range) was 100 to 1000 nM, the EC50 ([1]; read-out: EC50 value in the replicon assay) was 166 nM and the IC50 [2] was > 100000 nM. The IC50 [3] was > 200000 nM.
